# Data as given in article PMC7245562 (Cell chemical biology, 2020).
# Assays:
# [1] = molecular target: T1, R12Y/G67S/Y100I ecDHFR fused to yellow fluorescent protein (ecDHFR.YFP) (Escherichia coli, UniProt P0ABQ4, G67S/R12Y/Y100I); format: cell-based; conditions: for stabilization of ecDHFR.YFP: 10 μM final concentration, 24 h treatment; for dose-dependent stabilization of ecDHFR.YFP: dose-response, 24 h
# [2] = molecular target: I5F/R12Y/G67S/Y100I ecDHFR.YFP (Escherichia coli, UniProt P0ABQ4, G67S/I5F/R12Y/Y100I); format: cell-based; conditions: 24 h, vs control ecDHFR DD
# [3] = molecular target: R12Y/M16L/G67S/Y100I ecDHFR.YFP (Escherichia coli, UniProt P0ABQ4, G67S/M16L/R12Y/Y100I); format: cell-based; conditions: 24 h, vs control ecDHFR DD
# [4] = molecular target: R12Y/F31L/G67S/Y100I ecDHFR.YFP (Escherichia coli, UniProt P0ABQ4, F31L/G67S/R12Y/Y100I); format: cell-based; conditions: 24 h, vs control ecDHFR DD
# [5] = molecular target: R12Y/G67S/I94L/Y100I ecDHFR.YFP (Escherichia coli, UniProt P0ABQ4, G67S/I94L/R12Y/Y100I); format: cell-based; conditions: 24 h, vs control ecDHFR DD
# [6] = molecular target: T2, ecDHFR DD firefly luciferase (ecDHFR.FLuc) (Escherichia coli, UniProt P0ABQ4, G67S/R12Y/Y100I); format: in vivo, BALB/c mice; conditions: 1 mg (50 mg/kg) oral gavage, 6 h, mean ± SEM
# [7] = molecular target: T2, ecDHFR DD firefly luciferase (ecDHFR.FLuc); format: in vivo, BALB/c mice; conditions: 1 mg (50 mg/kg) oral gavage, 6 h, mean ± SEM; remark: listed apart in the source
# RN4220 S. aureus = assay: Bacterial growth assay, Gram-positive S. aureus; format: cell-based; conditions: concentrations up to 50 μM
# recombinant hsDHFR = molecular target: T3, recombinant hsDHFR (Homo sapiens, UniProt P00374); assay: Human DHFR; format: biochemical; conditions: 1 μM compound
# T3 sequence (P00374 1-187): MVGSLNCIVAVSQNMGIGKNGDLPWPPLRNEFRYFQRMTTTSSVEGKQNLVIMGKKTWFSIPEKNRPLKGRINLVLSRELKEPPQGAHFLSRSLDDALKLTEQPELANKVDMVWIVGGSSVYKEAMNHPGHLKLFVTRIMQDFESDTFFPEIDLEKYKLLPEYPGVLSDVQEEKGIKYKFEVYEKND
# Iba1(+) microglia = assay: Iba1; format: in vivo, BALB/c mice; conditions: 1 mg per day for 7 days, oral gavage
# ecDHFR.YFP = ecDHFR.YFP (Escherichia coli, UniProt P0ABQ4, G67S/R12Y/Y100I); format: cell-based; conditions: for stabilization of ecDHFR after washout: 48 h post washout; for "Off" kinetics compared with TMP: 1 and 10 μM
# [8] = test system: BW25113 wild-type E. coli; assay: Bacterial growth assay, Gram-negative E. coli; conditions: Escherichia coli, BW25113, read-out: minimal inhibitory concentration [MIC]
# [9] = molecular target: T1, R12Y/G67S/Y100I ecDHFR fused to yellow fluorescent protein (ecDHFR.YFP); format: cell-based; conditions: 5 μM, 24 h
smiles,measurement,setting,value
"Nc1ccnc(N)n1 [2,4-DAP, 2,4-diaminopyrimidine]",stabilization of ecDHFR.YFP,[1],insufficient to stabilize
"Nc1ncc(C=O)c(N)n1 [2,4-DAP-5C, 2,4-diaminopyrimidine-5-carbaldehyde]",stabilization of ecDHFR.YFP,[1],insufficient to stabilize
"Nc1nc(N)c2ccccc2n1 [2,4-DAQ, 2,4-diaminoquinazoline]","responsiveness to stabilization, Ile5 (I5F) mutant",[2],eliminated all responsiveness
same,effect of Met16 (M16L) mutation on stabilization,[3],did not significantly disrupt
same,"responsiveness to stabilization, Phe31 (F31L) mutant",[4],eliminated all responsiveness
same,"responsiveness to stabilization, Ile94 (I94L) mutant",[5],eliminated all responsiveness
same,"fold change in luminescence after treatment, eye",[6],1.6 ± 0.3 fold
same,"fold change in bioluminescent signal, liver",[7],5.3 ± 2.1 fold
"Nc1nc2ccccc2c(=O)[nH]1 [2-AQ-4O, 2-amino-3H-quinazolin-4-one]",stabilization of ecDHFR.YFP,[1],did not allow for stabilization
Nc1nc(N)c2nc(-c3cccc(Cl)c3)c(N)nc2n1 [Epiblastin A],S. aureus growth inhibition,RN4220 S. aureus,did not completely inhibit growth
same,inhibition of hsDHFR activity,recombinant hsDHFR,intermediately inhibited
COc1ccc(COc2ccc(Cc3cnc(N)nc3N)cc2OC)cc1 [GW2580],MIC,"RN4220 S. aureus; LB broth, endpoint 19-24 h",~ 50 μM
same,"fold change in luminescence after treatment, eye",[6],8.6 ± 1.7 fold
same,"reduction of Iba1(+) microglia, inner retina",Iba1(+) microglia,33%
same,"reduction of Iba1(+) microglia, outer retina",Iba1(+) microglia,32%
C#CCC(Cc1cnc2nc(N)nc(N)c2n1)c1ccc(C(=O)N[C@@H](CCC(=O)O)C(=O)O)cc1 (stereo partly shown) [Pralatrexate],dose-dependent stabilization of ecDHFR.YFP,[1],readily stabilized
same,inhibition of hsDHFR activity,recombinant hsDHFR,completely inhibited
same,"fold change in luminescence after treatment, eye",[6],3.5 ± 0.7 fold
same,"fold change in bioluminescent signal, liver",[7],7.1 ± 1.3 fold
same,stabilization of ecDHFR after washout,ecDHFR.YFP,continued to stabilize ecDHFR
same,time of peak ecDHFR.YFP fluorescence,"ecDHFR.YFP; all concentrations used (0.1, 1, 10 μM)",48 h
Nc1nc(N)c2nc(-c3ccccc3)c(N)nc2n1 [Triamterene],inhibition of hsDHFR activity,recombinant hsDHFR,intermediately inhibited
same,"fold change in luminescence after treatment, eye",[6],3.1 ± 0.6 fold
same,"fold change in bioluminescent signal, liver",[7],1.9 ± 0.2 fold
CC1(C)N=C(N)N=C(N)N1OCCCOc1cc(Cl)c(Cl)cc1Cl [WR99210],inhibition of hsDHFR activity,recombinant hsDHFR,intermediately inhibited
Nc1nc(N)c2nc(CNc3ccc(C(=O)N[C@@H](CCC(=O)O)C(=O)O)cc3)cnc2n1 [aminopterin],dose-dependent stabilization of ecDHFR.YFP,[1],readily stabilized
same,inhibition of hsDHFR activity,recombinant hsDHFR,completely inhibited
same,stabilization of ecDHFR after washout,ecDHFR.YFP,continued to stabilize ecDHFR
COc1ccc(Cc2cnc(N)nc2N)cc1OC [diaveridine],"""Off"" kinetics compared with TMP",ecDHFR.YFP,noticeably quicker
same,MIC,[8],~16.6 µM
COc1cc(C)c(Cc2cnc(N)nc2N)cc1OC [ormetoprim],"""Off"" kinetics, time after removal",ecDHFR.YFP; 0.1 μM,2 to 4 h
same,"""Off"" kinetics compared with TMP",ecDHFR.YFP,noticeably quicker
same,MIC,[8],~16.6 µM
Nc1nc2[nH]cc(CCc3ccc(C(=O)N[C@@H](CCC(=O)O)C(=O)O)cc3)c2c(=O)[nH]1 [pemetrexed],stabilization of ecDHFR.YFP,[1],did not allow for stabilization
[H]/N=C(\N/C(=N/[H])Nc1ccc(Cl)cc1)NC(C)C [proguanil],stabilization of ecDHFR.YFP,[1],no stabilization capabilities
Cc1cc(/C=C/c2ccc3cc(N(C)C)ccc3[n+]2C)c(C)n1-c1ccccc1 [pyrvinium pamoate],hit follow-up in ARPE-19 cells lacking ecDHFR.YFP,[9],fluorescent false positives
Cc1nc2ccc(CN(C)c3ccc(C(=O)N[C@@H](CCC(=O)O)C(=O)O)s3)cc2c(=O)[nH]1 [raltitrexed],stabilization of ecDHFR.YFP,[1],did not allow for stabilization
